From paper PMC12365235, “Molecular mechanisms of thiazide-like diuretics-mediated inhibition of the human Na-Cl cotransporter” (Nature Communications, 2025)

Target: T1, hNCC(N227A) (Homo sapiens, UniProt P55017, N227A)
T1 construct: expressed in transfected cells
T1 sequence (P55017 1-1021 N227A): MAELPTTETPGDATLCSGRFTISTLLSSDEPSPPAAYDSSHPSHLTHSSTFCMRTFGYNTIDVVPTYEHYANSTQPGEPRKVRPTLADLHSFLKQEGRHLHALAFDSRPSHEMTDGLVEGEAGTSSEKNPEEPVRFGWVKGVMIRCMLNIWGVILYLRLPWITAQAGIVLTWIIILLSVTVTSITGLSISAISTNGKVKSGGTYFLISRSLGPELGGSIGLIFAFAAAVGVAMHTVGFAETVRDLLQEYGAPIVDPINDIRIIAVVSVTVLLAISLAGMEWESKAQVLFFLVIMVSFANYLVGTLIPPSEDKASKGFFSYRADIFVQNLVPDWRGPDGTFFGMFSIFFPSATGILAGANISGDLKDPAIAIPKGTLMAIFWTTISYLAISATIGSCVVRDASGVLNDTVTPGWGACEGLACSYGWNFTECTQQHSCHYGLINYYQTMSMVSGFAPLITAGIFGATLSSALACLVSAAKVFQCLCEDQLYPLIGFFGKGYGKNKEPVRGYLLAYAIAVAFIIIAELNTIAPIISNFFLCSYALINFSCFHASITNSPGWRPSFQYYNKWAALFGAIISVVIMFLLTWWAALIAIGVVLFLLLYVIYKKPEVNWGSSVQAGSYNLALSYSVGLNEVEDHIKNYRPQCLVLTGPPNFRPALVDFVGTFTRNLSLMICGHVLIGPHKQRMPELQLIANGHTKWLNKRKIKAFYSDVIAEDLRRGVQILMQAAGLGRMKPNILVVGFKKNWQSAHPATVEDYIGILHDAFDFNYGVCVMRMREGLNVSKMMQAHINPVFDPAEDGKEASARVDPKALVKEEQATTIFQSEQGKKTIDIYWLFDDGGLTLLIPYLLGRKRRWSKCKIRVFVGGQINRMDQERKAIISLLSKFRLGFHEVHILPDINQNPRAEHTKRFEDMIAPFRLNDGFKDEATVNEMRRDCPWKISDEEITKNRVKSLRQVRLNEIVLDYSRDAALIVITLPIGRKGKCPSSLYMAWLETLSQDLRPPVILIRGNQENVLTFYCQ
Test: 125I- uptake assay, hNCC(N227A) variant
Assay type: cell-based
Settings: for increase in IC50 relative to hNCC(WT) / IC50: N227A substitution; for IC50: iodide uptake
Method: HEK293S cell lines, cultured in 293 Freestyle medium (Life Technologies; plus 10% fetal bovine serum), stably expressing hNCC and its variants were generated following published protocols. Cells were transfected using Lipofectamine 3000 (Invitrogen) with a pSBbi-RP-based plasmid containing hNCC or its variants and the SB100X vector. Puromycin (2 μg/mL; Gemini Bio-Products) was used for selection of stable cell lines.
To prepare for the uptake experiment, cells were plated at 0.5 × 10^6 cells/well in 24-well plates one day in advance. To activate NCC, cells were treated with a chloride-free hypotonic solution composed of 67.5 mM sodium-, 2.5 mM potassium-, 0.25 mM magnesium-, and 0.25 mM calcium-gluconate, as well as 7.5 mM HEPES pH 7.4 (buffered using Tris) at 37 °C for 10 min[72]. After the activation step, the experiments were carried out at room temperature. Ten minutes before the start of ^125I^− uptake, 70 μM Bumetanide (Thermo Scientific Chemicals) and 100 μM 4,4′-diisothiocyanatostilbene-2,2′-disulfonic acid (DIDS; Sigma) were added to suppress background iodide uptake activity. Indicated thiazide diuretics were also added to the indicated concentrations 10 min before the start of ^125I^− uptake. The original buffer was switched to an uptake buffer composed of 135 mM Na-gluconate, 5 mM K-gluconate, 1 mM Mg-gluconate, 1 mM Ca-gluconate, 70 μM bumetanide, 100 μM DIDS, 1 mM NaI, 0.25 μCi/ml Na^125I (American Radiolabeled Chemicals, Inc.), and 15 mM HEPES pH 7.4 (buffered using Tris), in the presence or absence of thiazide diuretics to initiate ^125I^− uptake. The ^125I^− uptake process lasted 1 h and was stopped by two rapid washes using ice-cold 110 mM MgCl2. Cells lysed using 1% sodium dodecyl sulfate (SDS) were analyzed by scintillation counting.
To calculate the fold change of the half-maximal inhibitory concentration (IC50) between hNCC(WT) and different hNCC variants, individual dose-response curves were normalized first using the smallest mean and the value of the lowest concentration as 0% and 100%, respectively. The normalized data were then fitted using the “EC50 shift” nonlinear regression in GraphPad Prism 10 with the shared EC50Control assigned to be the IC50 of hNCC(WT). The following constraints were used in the EC50 shift analysis. The EC50Control was set to be shared across all curves under analysis and constrained to be greater than 0. The EC50Ratio was constrained to be greater than 0. The bottom, top, and HillSlope were constrained to be 0, 100, and −1, respectively. For Fig. 1f, g and Supplementary Fig. 2d, GraphPad Prism 10 was used to perform curve fitting and IC50 calculation for normalized data using y = 100/(1 + (x/IC50)).

Structure (SMILES)	increase in IC50 relative to hNCC(WT)	effect of N227A substitution on potency relative to its effect on polythiazide (N227A, polythiazide sensitivities from ref 36)	IC50
CC1Cc2ccccc2N1NC(=O)c1ccc(Cl)c(S(N)(=O)=O)c1 (centres unmarked) [indapamide]	over 10,000 fold	over 50 fold	620 µM
NS(=O)(=O)c1cc(C2(O)NC(=O)c3ccccc32)ccc1Cl (centres unmarked) [chlorthalidone]	> 1000 fold		59 µM
